Source: US20250042916A1 (ACONCAGUA BIO, INC., priority 2023, published 2025)

Biological target: human calcitonin receptor (CTR) and RAMP3 (AMY3) in COS-7 cells (Homo sapiens, UniProt O60896+P30988)
Experiment: Amylin Receptor cAMP Assay I
Format: cell-based
Details: values marked *: Amylin Receptor cAMP Assay I; COS-7/AMY3 cells; read-out: Amylin Receptor cAMP Stimulation Activity: EC50
Description: Amylin Receptor cAMP Assay I
AMYRs are heterodimers of the class B calcitonin (CT) G-protein-coupled receptor (CTR) and receptor activity-modifying proteins (RAMPs). All three RAMPs can interact with the CTR and form AMY1, AMY2, AMY3 with RAMP1, RAMP2 and RAMP3, respectively. Like other class B1 GPCRs, the CT receptor family is canonically coupled to Gs-mediated cAMP production, and measurement of cAMP accumulation has been the primary assay used to determine peptide selectivity and potency.
To optimize functional activity directed toward Gas coupling, COS-7 cells were stably transfected with human calcitonin receptor (CTR) and RAMP3, simultaneously. 100× concentration of compound working solutions were prepared (Agilent Technologies Bravo) with 4-fold serial dilution in 384-well Echo LDV plate (Labcyte, Cat #LP-0200). 100 nL/well 100× concentration of compound working solutions were moved to 384-well white low volume plate (Greiner, Cat #784075) using Labcyte ECHO550. 1×10^5 cells/mL COS-7/CTR or COS-7/AMY3 (HD Biosciences) cell suspensions prepared with assay buffer [DPBS containing 0.5 mM IBMX (Sigma, Cat #15879) and 0.1% BSA (GENVIEW, Cat #FA016-100 g)], 10 μL cell suspensions were added to each well of previous generated assay plate which already contains 100 nL compound at 100× concentration using ThermoFisher Multidrop Combi (1000 cells/well). Seal the plate and incubate at 37° C. with 5% CO2 for 30 min.
After incubation, the cAMP assay signal was generated using cAMP Hi-range Kit (Cisbio). 5 μL cAMP-d2 working solution was added to each well, followed by 5 μL Anti-cAMP antibody-cryptate working solution which was added to each well using ThermoFisher Multidrop Combi. The samples were then incubated at room temperature for 1 hour protected from light. the fluorescence was read at 665 and 615 nm with Reader PerkinElmer EnVision.

Sequence of human calcitonin receptor (CTR) and RAMP3 (AMY3) in COS-7 cells (P30988 25-474): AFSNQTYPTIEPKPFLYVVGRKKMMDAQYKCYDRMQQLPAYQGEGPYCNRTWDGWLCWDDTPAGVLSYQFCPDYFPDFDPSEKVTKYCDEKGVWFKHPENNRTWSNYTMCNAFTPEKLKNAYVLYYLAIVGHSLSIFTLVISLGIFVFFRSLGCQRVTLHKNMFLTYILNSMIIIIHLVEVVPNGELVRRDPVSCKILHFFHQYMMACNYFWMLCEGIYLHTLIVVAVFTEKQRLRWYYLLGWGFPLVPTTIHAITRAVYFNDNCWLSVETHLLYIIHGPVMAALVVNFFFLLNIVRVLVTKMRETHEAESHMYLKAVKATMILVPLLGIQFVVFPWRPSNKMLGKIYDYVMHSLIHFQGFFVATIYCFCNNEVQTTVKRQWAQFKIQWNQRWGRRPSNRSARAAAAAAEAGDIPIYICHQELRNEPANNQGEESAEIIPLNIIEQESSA
Sequence of human calcitonin receptor (CTR) and RAMP3 (AMY3) in COS-7 cells (O60896 24-148): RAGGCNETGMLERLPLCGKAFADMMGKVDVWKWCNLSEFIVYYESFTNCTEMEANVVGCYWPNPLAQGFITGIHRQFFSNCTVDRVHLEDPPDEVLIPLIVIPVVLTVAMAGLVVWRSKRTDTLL

Structure (SMILES) | EC50 [nM]
CC(C)Cc1nc(CCc2ccc(F)cc2)c(-c2nc(C(F)(F)F)no2)c(-c2ccc(C(=O)NCc3ccc(F)c(F)c3)s2)c1C(N)=O [Compound 105, N-(3,4-difluorophenyl)methyl-5-{5-carbamoyl-2-[2-(p-fluorophenyl)ethyl]-6-isobutyl-3-[3-(trifluoromethyl)-1,2,4-oxadiazol-5-yl]-4-pyridyl}-2-thenamide] | 591
COc1cccc2c1CC[C@H]2Nc1nccc2cc(-c3c(C(N)=O)c(CC(C)C)nc(CCC4CCOCC4)c3-c3ncc(C)o3)sc12 [Compound 198, (R)-2-isobutyl-4-(7-((4-methoxy-2,3-dihydro-1H-inden-1-yl)amino)thieno[2,3-c]pyridin-2-yl)-5-(5-methyloxazol-2-yl)-6-(2-(tetrahydro-2H-pyran-4-yl)ethyl)nicotinamide] | 229
Cc1nnc(-c2c(CCc3ccc(F)cc3)nc(CC(C)C)c(C(N)=O)c2-c2cc3cccc(C#N)c3s2)o1 [Compound 138, 4-(7-cyano-1-benzothiophen-2-yl)-6-[2-(p-fluorophenyl)ethyl]-2-isobutyl-5-(5-methyl-1,3,4-oxadiazol-2-yl)nicotinamide] | 2260
Cc1nnc(-c2c(CCc3ccc(F)cc3)nc(CC(C)C)c(C(N)=O)c2-c2cc3c(N)cccc3s2)o1 [Compound 139, 4-(4-aminobenzo[b]thiophen-2-yl)-6-(4-fluorophenethyl)-2-isobutyl-5-(5-methyl-1,3,4-oxadiazol-2-yl)nicotinamide] | 9930
Cc1nnc(-c2c(CC(C)C)nc(CC(C)C)c(C(N)=O)c2-c2ccc(C(=O)NCc3ccc(F)c(F)c3)s2)o1 [Compound 111, 4-(5-((3,4-difluorobenzyl)carbamoyl)thiophen-2-yl)-2,6-diisobutyl-5-(5-methyl-1,3,4-oxadiazol-2-yl)nicotinamide] | 650
CC(C)Cc1nc(CCc2ccc(F)cc2)c(-c2cnn(C)c2)c(-c2ccc(C(=O)NCc3ccc(F)c(F)c3)s2)c1C(N)=O [Compound 159] | 91
Cc1noc(-c2c(CCc3ccc(F)cc3)nc(CC(C)C)c(C(N)=O)c2-c2ccc(C(=O)N[C@@H]3CCc4ccccc43)s2)n1 [Compound 101, N—[(R)-1-indanyl]-5-{5-carbamoyl-2-[2-(p-fluorophenyl)ethyl]-6-isobutyl-3-(3-methyl-1,2,4-oxadiazol-5-yl)-4-pyridyl}-2-thenamide] | 84.7
Cc1nnc(-c2c(CCc3ccc(F)cc3)nc(CC(C)C)c(C(N)=O)c2-c2ccc(C(=O)NCc3ccc(F)c(F)c3)s2)s1 [Compound 149, N-(3,4-difluorophenyl)methyl-5-{5-carbamoyl-2-[2-(p-fluorophenyl)ethyl]-6-isobutyl-3-(5-methyl-1,3,4-thiadiazol-2-yl)-4-pyridyl}-2-thenamide] | 19.1
Cc1nnc(-c2c(CCc3ccc(F)cc3)nc(CC(C)C)c(C(N)=O)c2-c2ccc(CNC(=O)c3ccc(F)c(F)c3)s2)o1 [Compound 141] | 50
Cc1nnc(-c2c(CCc3ccc(F)cc3)nc(CC(C)C)c(C(N)=O)c2-c2ccc(C(=O)NCc3ccc(F)c(F)c3)o2)o1 [Compound 128, N-(3,4-difluorophenyl)methyl-5-{5-carbamoyl-2-[2-(p-fluorophenyl)ethyl]-6-isobutyl-3-(5-methyl-1,3,4-oxadiazol-2-yl)-4-pyridyl}-2-furamide] | 162
Cc1nnc(-c2c(CCc3ccc(F)cc3)nc(CC(C)C)c(C(N)=O)c2-c2cc3ccccc3s2)o1 [Compound 127, 4-(1-benzothiophen-2-yl)-6-[2-(p-fluorophenyl)ethyl]-2-isobutyl-5-(5-methyl-1,3,4-oxadiazol-2-yl)nicotinamide] | 495
Cc1nnc(-c2c(CCc3ccc(F)cc3)nc(CC(C)C)c(C(N)=O)c2-c2ccc(CN[C@@H]3CCc4ccccc43)s2)o1 [Compound 140, 4-(5-{[(R)-1-indanylamino]methyl}-2-thienyl)-6-[2-(p-fluorophenyl)ethyl]-2-isobutyl-5-(5-methyl-1,3,4-oxadiazol-2-yl)nicotinamide] | 177
Cc1nnc(-c2c(CCc3ccc(F)cc3)nc(CC(C)C)c(C(N)=O)c2-c2cc3cccc(N[C@@H]4CCc5ccccc54)c3s2)o1 [Compound 137, (R)-4-(7-((2,3-dihydro-1H-inden-1-yl)amino)benzo[b]thiophen-2-yl)-6-(4-fluorophenethyl)-2-isobutyl-5-(5-methyl-1,3,4-oxadiazol-2-yl)nicotinamide] | 1.3
Cc1nnc(-c2c(CCC(=O)N3CCCC3)nc(CC(C)C)c(C(N)=O)c2-c2ccc(C(=O)NCc3ccc(F)c(F)c3)s2)o1 [Compound 182] | 23300
Cc1nnc(-c2c(CCc3ccc(F)cc3)nc(CC(C)C)c(C(N)=O)c2-c2cc3ncnc(NCc4ccc(F)c(F)c4)c3s2)o1 [Compound 132, 4-(4-((3,4-difluorobenzyl)amino)thieno[3,2-d]pyrimidin-6-yl)-6-(4-fluorophenethyl)-2-isobutyl-5-(5-methyl-1,3,4-oxadiazol-2-yl)nicotinamide] | 2.5
Cc1noc(-c2c(CCc3ccc(F)cc3)nc(CC(C)C)c(C(N)=O)c2-c2ccc(C(=O)NCc3ccc(F)c(F)c3)s2)n1 [Compound 102, N-(3,4-difluorophenyl)methyl-5-{5-carbamoyl-2-[2-(p-fluorophenyl)ethyl]-6-isobutyl-3-(3-methyl-1,2,4-oxadiazol-5-yl)-4-pyridyl}-2-thenamide] | 85.9
Cc1nnc(-c2c(CCC3CCCCC3)nc(CC(C)C)c(C(N)=O)c2-c2ccc(C(=O)NCc3ccc(F)c(F)c3)s2)o1 [Compound 109, 6-(2-cyclohexylethyl)-4-(5-((3,4-difluorobenzyl)carbamoyl)thiophen-2-yl)-2-isobutyl-5-(5-methyl-1,3,4-oxadiazol-2-yl)nicotinamide] | 20
Cc1nnc(-c2c(CCc3ccc(F)cc3)nc(CC(C)C)c(C(N)=O)c2-c2ccc(C(=O)N[C@H]3CCc4ccccc43)s2)o1 [Compound 118, (S)-4-(5-((2,3-dihydro-1H-inden-1-yl)carbamoyl)thiophen-2-yl)-6-(4-fluorophenethyl)-2-isobutyl-5-(5-methyl-1,3,4-oxadiazol-2-yl)nicotinamide] | 211
Cc1nnc(-c2c(CCc3ccc(F)cc3)nc(CC(C)C)c(C(N)=O)c2-c2cc3ccnc(NCc4cccnc4)c3s2)o1 [Compound 201, 6-(4-fluorophenethyl)-2-isobutyl-5-(5-methyl-1,3,4-oxadiazol-2-yl)-4-(7-((pyridin-3-ylmethyl)amino)thieno[2,3-c]pyridin-2-yl)nicotinamide] | 381
Cc1nnc(-c2c(CC3(c4ccc(F)cc4)CC3)nc(CC(C)C)c(C(N)=O)c2-c2ccc(C(=O)NCc3ccc(F)c(F)c3)s2)o1 [Compound 172, 4-(5-((3,4-difluorobenzyl)carbamoyl)thiophen-2-yl)-6-((1-(4-fluorophenyl)cyclopropyl)methyl)-2-isobutyl-5-(5-methyl-1,3,4-oxadiazol-2-yl)nicotinamide] | 1140
Cc1nnc(-c2c(COc3ccc(F)cc3)nc(CC(C)C)c(C(N)=O)c2-c2cc3ccnc(N[C@@H]4CCc5ccccc54)c3s2)o1 [Compound 175, (R)-4-(7-((2,3-dihydro-1H-inden-1-yl)amino)thieno[2,3-c]pyridin-2-yl)-6-((4-fluorophenoxy)methyl)-2-isobutyl-5-(5-methyl-1,3,4-oxadiazol-2-yl)nicotinamide] | 211
Cc1nnc(-c2c(CCc3ccc(F)cc3)nc(CC(C)C)c(S(C)(=O)=O)c2-c2ccc(C(=O)NCc3ccc(F)c(F)c3)s2)o1 [Compound 155] | > 1000
Cc1nnc(-c2c(CCC3CCOCC3)nc(CC(C)C)c(C(N)=O)c2-c2cc3ccnc(N[C@@H]4CCc5ncccc54)c3s2)o1 [Compound 196, (R)-4-(7-((6,7-dihydro-5H-cyclopenta[b]pyridin-5-yl)amino)thieno[2,3-c]pyridin-2-yl)-2-isobutyl-5-(5-methyl-1,3,4-oxadiazol-2-yl)-6-(2-(tetrahydro-2H-pyran-4-yl)ethyl)nicotinamide] | 279
Cc1nnc(-c2c(NCc3ccc(F)cc3)nc(CC(C)C)c(C(N)=O)c2-c2ccc(C(=O)NCc3ccc(F)c(F)c3)s2)o1 [Compound 158] | 120
Cc1nnc(-c2c(CCc3ccc(F)cc3)nc(CC(C)C)c(C(N)=O)c2-c2cc3ccnc(NCc4ccncc4)c3s2)o1 [Compound 202, 6-(4-fluorophenethyl)-2-isobutyl-5-(5-methyl-1,3,4-oxadiazol-2-yl)-4-(7-((pyridin-4-ylmethyl)amino)thieno[2,3-c]pyridin-2-yl)nicotinamide] | 242
COC(Cc1nc(CC(C)C)c(C(N)=O)c(-c2ccc(C(=O)NCc3ccc(F)c(F)c3)s2)c1-c1nnc(C)o1)c1ccc(F)cc1 (centres unmarked) [Compound 186, 4-(5-((3,4-difluorobenzyl)carbamoyl)thiophen-2-yl)-6-(2-(4-fluorophenyl)-2-methoxyethyl)-2-isobutyl-5-(5-methyl-1,3,4-oxadiazol-2-yl)nicotinamide] | 123
